Target: T1, catalytic domain of human Bub1 (amino acids 704-1085) (Homo sapiens, UniProt O43683)
T1 construct: catalytic domain of human Bub1 (amino acids 704-1085); His6 (N); made in house; host or cells: Hi5 insect cells
Test: Bub1 kinase assay (TR-FRET)
Assay type: biochemical
Conditions: TR-FRET; ATP 10 μM, peptide substrate 1 μM; 60 min at 22° C.; average or median if tested more than once; read-out: Inhibition of Bub1 kinase IC50
Outline: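 Human Bub1 catalytic domain (704-1085, His6-tagged, Hi5-expressed, ~200 ng/mL) preincubated with compound 15 min at 22 °C, then reacted 60 min at 22 °C with 10 μM ATP and 1 μM biotinylated peptide substrate, pH 7.5. EDTA stop; TR-FRET 665/620 ratio; IC50 from 4-parameter fit, 11 concentrations in duplicate.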

T1 sequence (O43683 704-1085): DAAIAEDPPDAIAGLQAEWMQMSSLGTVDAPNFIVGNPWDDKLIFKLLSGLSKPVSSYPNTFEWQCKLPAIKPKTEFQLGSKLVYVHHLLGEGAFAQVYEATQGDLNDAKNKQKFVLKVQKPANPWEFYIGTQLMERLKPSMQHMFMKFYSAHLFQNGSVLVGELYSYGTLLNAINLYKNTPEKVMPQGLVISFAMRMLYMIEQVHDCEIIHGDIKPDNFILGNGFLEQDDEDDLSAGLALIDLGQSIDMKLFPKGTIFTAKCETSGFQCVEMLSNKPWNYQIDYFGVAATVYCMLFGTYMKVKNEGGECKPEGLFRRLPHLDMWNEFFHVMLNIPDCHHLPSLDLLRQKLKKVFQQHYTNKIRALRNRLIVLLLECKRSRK

| SMILES | IC50 |
| --- | --- |
| CC(=O)Nc1cc(-c2[nH]c3c(c2Nc2ccccc2)C(=O)CN(C(=O)N2CCN(C)CC2)C3)ccn1 [Example 127, N-(4-{3-Anilino-6-[(4-methylpiperazin-1-yl)carbonyl]-4-oxo-4,5,6,7-tetrahydro-1H-pyrrolo[2,3-c]pyridin-2-yl}pyridin-2-yl)acetamide] | 29 nM |
| CC(C)(F)C(=O)Nc1cc(-c2[nH]c3c(c2Nc2ccccc2)C(=O)CNC3)ccn1 [Example 130, N-[4-(3-Anilino-4-oxo-4,5,6,7-tetrahydro-1H-pyrrolo[2,3-c]pyridin-2-yl)pyridin-2-yl]-2-fluoro-2-methylpropanamide] | 662 nM |
| CC(C)(C)OC(=O)N1CC(=O)c2c([nH]c(-c3ccnc(NC(=O)C4(F)CC4)c3)c2Nc2ccccc2)C1 [Example 131, tert-Butyl 3-anilino-2-{2-([(1-fluorocyclopropyl)carbonyl]amino}pyridin-4-yl)-4-oxo-1,4,5,7-tetrahydro-6H-pyrrolo[2,3-c]pyridine-6-carboxylate] | 23 nM |
| O=C1CNCc2[nH]c(-c3ccnc(NC(=O)C4(F)CC4)c3)c(Nc3ccccc3)c21 [Example 132, N-[4-(3-anilino-4-oxo-4,5,6,7-tetrahydro-1H-pyrrolo[2,3-c]pyridin-2-yl)pyridin-2-yl]-1-fluorocyclopropanecarboxamide] | 299 nM |
| CC(C)(C)OC(=O)N1CC(=O)c2c([nH]c(-c3ccnc(NC(=O)c4ccc(F)cc4)c3)c2Nc2ccccc2)C1 [Example 133, tert-Butyl 3-anilino-2-{2-[(4-fluorobenzoyl)amino]pyridin-4-yl}-4-oxo-1,4,5,7-tetrahydro-6H-pyrrolo[2,3-c]pyridine-6-carboxylate] | 28 nM |
| O=C(Nc1cc(-c2[nH]c3c(c2Nc2ccccc2)C(=O)CNC3)ccn1)c1ccc(F)cc1 [Example 134, N-[4-(3-anilino-4-oxo-4,5,6,7-tetrahydro-1H-pyrrolo[2,3-c]pyridin-2-yl)pyridin-2-yl]-4-fluorobenzamide] | 36 nM |
| O=C(Nc1cc(-c2[nH]c3c(c2Nc2ccccc2)C(=O)CNC3)ccn1)c1cncs1 [Example 135] | 51 nM |
| O=C1CNCc2[nH]c(-c3ccnc(NC(=O)[C@H]4C[C@H]4F)c3)c(Nc3ccccc3)c21 [Example 138, (1R,2R)—N-[4-(3-Anilino-4-oxo-4,5,6,7-tetrahydro-1H-pyrrolo[2,3-c]pyridin-2-yl)pyridin-2-yl]-2-fluorocyclopropanecarboxamide] | 224 nM |
| COc1cc(C(=O)Nc2cc(-c3[nH]c4c(c3Nc3ccccc3)C(=O)COC4)ccn2)ccc1F [Example 140, N-[4-(3-Anilino-4-oxo-1,4,5,7-tetrahydropyrano[3,4-b]pyrrol-2-yl)pyridin-2-yl]-4-fluoro-3-methoxybenzamide] | 31 nM |
| COC(=O)N1CC(=O)c2c([nH]c(-c3ccnc(NC(=O)C(C)(C)F)c3)c2Nc2ccccc2)C1 [Example 144, Methyl 3-anilino-2-{2-[(2-fluoro-2-methylpropanoyl)amino]pyridin-4-yl}-4-oxo-1,4,5,7-tetrahydro-6H-pyrrolo[2,3-c]pyridine-6-carboxylate] | 20 nM |
| CC(C)(O)C(=O)Nc1cc(-c2[nH]c3c(c2Nc2ccccc2)C(=O)COC3)ccn1 [Example 152, N-[4-(3-Anilino-4-oxo-1,4,5,7-tetrahydropyrano[3,4-b]pyrrol-2-yl)pyridin-2-yl]-2-hydroxy-2-methylpropanamide] | 437 nM |
| CN(C)CC(=O)Nc1cc(-c2[nH]c3c(c2Nc2ccccc2)C(=O)COC3)ccn1 [Example 153, N-[4-(3-Anilino-4-oxo-1,4,5,7-tetrahydropyrano[3,4-b]pyrrol-2-yl)pyridin-2-yl]-N^2,N^2-dimethylglycinamide] | 510 nM |
| O=C(Nc1cc(-c2[nH]c3c(c2Nc2ccccc2)C(=O)COC3)ccn1)c1ccc(F)c(F)c1 [Example 154, N-[4-(3-Anilino-4-oxo-1,4,5,7-tetrahydropyrano[3,4-b]pyrrol-2-yl)pyridin-2-yl]-3,4-difluorobenzamide] | 19 nM |
| CC(C)OC(=O)N1CC(=O)c2c([nH]c(-c3ccnc(NC(=O)C(C)(C)F)c3)c2Nc2ccccc2)C1 [Example 155, Isopropyl 3-anilino-2-{2-[(2-fluoro-2-methylpropanoyl)amino]pyridin-4-yl}-4-oxo-1,4,5,7-tetrahydro-6H-pyrrolo[2,3-c]pyridine-6-carboxylate] | 60 nM |
| CC(C)OC(=O)N1CC(=O)c2c([nH]c(-c3ccnc(NC(=O)C4(F)CC4)c3)c2Nc2ccccc2)C1 [Example 159, Isopropyl 3-anilino-2-{2-([(1-fluorocyclopropyl)carbonyl]amino}pyridin-4-yl)-4-oxo-1,4,5,7-tetrahydro-6H-pyrrolo[2,3-c]pyridine-6-carboxylate] | 22 nM |
| CC(C)(F)C(=O)Nc1cc(-c2[nH]c3c(c2Nc2ccccc2)C(=O)CN(S(=O)(=O)c2cnc[nH]2)C3)ccn1 [Example 162, N-{4-[3-Anilino-6(1H-imidazol-5-ylsulfonyl)-4-oxo-4,5,6,7-tetrahydro-1H-pyrrolo[2,3-c]pyridin-2-yl]pyridin-2-yl}-2-fluoro-2-methylpropanamide] | 38 nM |

These reach a lower IC50. Values come first.

| IC50 | SMILES |
| --- | --- |
| 10 nM | CC(=O)Nc1cc(-c2[nH]c3c(c2Nc2ccccc2)C(=O)CN(C(=O)N2CCOCC2)C3)ccn1 [Example 125, N-{4-[3-Anilino-6-(morpholin-4-ylcarbonyl)-4-oxo-4,5,6,7-tetrahydro-1H-pyrrolo[2,3-c]pyridin-2-yl]pyridin-2-yl}acetamide] |
| 7 nM | CC(=O)Nc1cc(-c2[nH]c3c(c2Nc2ccccc2)C(=O)CN(C(=O)N2CCCC2)C3)ccn1 [Example 126, N-{4-[3-Anilino-4-oxo-6-(pyrrolidin-1-ylcarbonyl)-4,5,6,7-tetrahydro-1H-pyrrolo[2,3-c]pyridin-2-yl]pyridin-2-yl}acetamide] |
| 8 nM | CC(C)(C)OC(=O)N1CC(=O)c2c([nH]c(-c3ccnc(NC(=O)[C@H]4C[C@H]4F)c3)c2Nc2ccccc2)C1 [Example 128, tert-Butyl 3-anilino-2-[2-({[(1R,2R)-2-fluorocyclopropyl]carbonyl}amino)pyridin-4-yl]-4-oxo-1,4,5,7-tetrahydro-6H-pyrrolo[2,3-c]pyridine-6-carboxylate] |
| 7 nM | COC(=O)N1CC(=O)c2c([nH]c(-c3ccnc(NC(=O)[C@H]4C[C@H]4F)c3)c2Nc2ccccc2)C1 [Example 141, Methyl 3-anilino-2-[2-({[(1R,2R)-2-fluorocyclopropyl]carbonyl}amino)pyridin-4-yl]-4-oxo-1,4,5,7-tetrahydro-6H-pyrrolo[2,3-c]pyridine-6-carboxylate] |
| 6 nM | COC(=O)N1CC(=O)c2c([nH]c(-c3ccnc(NC(=O)[C@@H]4C[C@H]4F)c3)c2Nc2ccccc2)C1 [Example 143, Methyl 3-anilino-2-[2-({[(1S,2R)-2-fluorocyclopropyl]carbonyl}amino)pyridin-4-yl]-4-oxo-1,4,5,7-tetrahydro-6H-pyrrolo[2,3-c]pyridine-6-carboxylate] |
| 16 nM | O=C(Nc1cc(-c2[nH]c3c(c2Nc2ccccc2)C(=O)COC3)ccn1)c1ccn[nH]1 [Example 145, N-[4-(3-Anilino-4-oxo-1,4,5,7-tetrahydropyrano[3,4-b]pyrrol-2-yl)pyridin-2-yl]-1H-pyrazole-5-carboxamide] |
| 8 nM | COC(=O)N1CC(=O)c2c([nH]c(-c3ccnc(NC(=O)C4(F)CC4)c3)c2Nc2ccccc2)C1 [Example 147, Methyl 3-anilino-2-{2-([(1-fluorocyclopropyl)carbonyl]amino}pyridin-4-yl)-4-oxo-1,4,5,7-tetrahydro-6H-pyrrolo[2,3-c]pyridine-6-carboxylate] |
| 5 nM | CS(=O)(=O)N1CC(=O)c2c([nH]c(-c3ccnc(NC(=O)C4(F)CC4)c3)c2Nc2ccccc2)C1 [Example 150, N-{4-[3-Anilino-6(methylsulfonyl)-4-4-oxo-4,5,6,7-tetrahydro-1H-pyrrolo[2,3-c]pyridin-2-yl]pyridin-2-yl}-1-fluorocyclopropanecarboxamide] |
| 4 nM | CS(=O)(=O)N1CC(=O)c2c([nH]c(-c3ccnc(NC(=O)c4cncs4)c3)c2Nc2ccccc2)C1 [Example 151] |
| 12 nM | CC(C)OC(=O)N1CC(=O)c2c([nH]c(-c3ccnc(NC(=O)c4cncs4)c3)c2Nc2ccccc2)C1 [Example 156, Isopropyl 3-anilino-4-oxo-2-{2-[(1,3-thiazol-5-ylcarbonyl)amino]pyridin-4-yl}-1,4,5,7-tetrahydro-6H-pyrrolo[2,3-c]pyridine-6-carboxylate] |
| 4 nM | O=C(Nc1cc(-c2[nH]c3c(c2Nc2ccccc2)C(=O)CN(S(=O)(=O)c2cnc[nH]2)C3)ccn1)c1ccc(F)cc1 [Example 160, N-{4-[3-Anilino-6-(1H-imidazol-5-ylsulfonyl)-4-oxo-4,5,6,7-tetrahydro-1H-pyrrolo[2,3-c]pyridin-2-yl]pyridin-2-yl}-4-fluorobenzamide] |
| 5 nM | O=C(Nc1cc(-c2[nH]c3c(c2Nc2ccccc2)C(=O)CN(S(=O)(=O)c2cnc[nH]2)C3)ccn1)c1cncs1 [Example 161, N-{4-[3-Anilino-6-(1H-imidazol-5-ylsulfonyl)-4-oxo-4,5,6,7-tetrahydro-1H-pyrrolo[2,3-c]pyridin-2-yl]pyridin-2-yl}-1,3-thiazole-5-carboxamide] |
| 14 nM | O=C1CN(S(=O)(=O)c2cnc[nH]2)Cc2[nH]c(-c3ccnc(NC(=O)C4(F)CC4)c3)c(Nc3ccccc3)c21 [Example 165, N-{4-[3-Anilino-6-(1H-imidazol-5-ylsulfonyl)-4-oxo-4,5,6,7-tetrahydro-1H-pyrrolo[2,3-c]pyridin-2-yl]pyridin-2-yl}-1-fluorocyclopropanecarboxamide] |
| 3 nM | CC(=O)Nc1cc(-c2[nH]c3c(c2Nc2ccccc2)C(=O)CN(C(=O)N2CCCCC2)C3)ccn1 [Example 166, N-{4-[3-Anilino-4-oxo-6-(piperidin-1-ylcarbonyl)-4,5,6,7-tetrahydro-1H-pyrrolo[2,3-c]pyridin-2-yl]pyridin-2-yl}acetamide] |

From US20200216439A1, “HETERO-1,5,6,7-TETRAHYDRO-4H-INDOL-4-ONES” (BAYER PHARMA AKTIENGESELLSCHAFT, priority 2015, published 2020)
